Counter-ions that a name gives are not always drawn.

In data set [1] the test system is DNA: Calf thymus sodium salt. Put plainly: DNA binding assay, Hoechst dye displacement. As to conditions: concentration required to displace 50% of the Hoescht Dye; 20 μM DNA, 2 μM dye. Set-up: key: NB = Not binding. On the procedure:
(§1) The propensity of selected compounds to bind to DNA in the absence of topos was measured in order to identify compounds that would bind weakly, or not at all. […] A […] was used determine binding constants of the compound to DNA by displacement of either ethidium bromide (an intercalator) or Hoechst dye 33258 (a groove binder) which form a DNA-bound fluorescent complex measured by fluorescence spectroscopy.
(§2) DNA Binding Assay Protocol
(§3) In order to detect the strength and mode of anthraquinone compound binding to DNA the displacement of known DNA binders was detected by measuring the fluorescence of a DNA/fluorescent compound complex. The addition of known concentrations of ethidium bromide, an interchelator, and Hoescht Dye, a groove binder, cause a fluorescent DNA/binder complex that can be detected and the fluorescence quantified. The addition of anthraquinone compounds displaces the interchelators or groove binders, depending on the compound mode of DNA binding, and therefore reduces the fluorescence accordingly. The preferred binding action of compounds can be quantified by determining the reduction in fluorescence resulting from a given concentration of compound. The quantification of a compounds ability to bind to DNA is expressed, as the concentration required to displace 50% of the ethidium bromide or Hoescht Dye, thus reducing the fluorescence by 50%. Therefore, the values produced are QE50 for ethidium, bromide, or QH50 for Hoescht Dye.
(§4) Compound: 300, 60, 10 and 10/6gM (1.66 μM) solution concentrations were prepared for use in the assay to produce a range of compound. Concentrations. 100, 200 and 300 μl of each dilution were used in the assay reaction. This provides a range of concentrations: −30, 20, 10, 6, 4, 2, 1, 0.67, 0.33, 0.17, 0.11, 0.06, 0.00 μM in the assay environment. Intermediate concentrations can be utilised to enhance the accuracy of the displacement concentration determination.
(§5) Buffer: 100 mM Tris, NaCI 500 mM. DNA: Calf thymus sodium salt. Stock solution of 200 μM was prepared in 10× assay buffer. Dilution of DNA therefore provided the correct concentration of assay buffer in the assay cell.300 μg DNA was used in 3 ml reaction mixture therefore 20 μM DNA concentration. Hoescht Dye 2 μM final concentration, therefore 100 μl of a 60 μM stock solution was added to a 3 ml assay. Ethidium Bromide 2 μM final concentration therefore 100 μl of a 60 μM stock solution was added to a 3 ml assay. Distilled H2O Water was added to produce 3 ml reaction volume. Order of addition: 1. DNA, 2. Water, 3. Drug, 4. Dye
(§6) The assay was completed with both Hoescht Dye and Ethidium. Bromide for each compound. The ethidium bromide is a DNA inter-chelator, Hoescht Dye is a minor groove binder. 100, 200 and […] of the lowest compound dilution was assayed. This procedure was repeated with all further dilution's. This provided a curve of fluorescence intensity decrease with increasing compound concentration. QE50 and QH50 values were determined by extrapolating the concentration of compound at the point where the fluorescence intensity was reduced by 50%. Controls involving compound only and ethidium. bromide or Hoechst Dye without compound were carried out for each experiment. Two readings for each concentration of compound were performed per experiment, each experiment was repeated at least three times. Fluorometer: Perkin Elmer Luminescence Spectrometer LS 50B.

In data set [2] the test system is MAC 15A adenocarcinoma of the colon. Put plainly: In vitro chemosensitivity against MAC 15A adenocarcinoma (MTT assay). The class given is cell-based. Particulars: Mus musculus, MAC15A, 96 hours continuous exposure. On the procedure:
In Vitro Activity Against MAC 15A Adenocarcinoma.
MAC 15A cells were grown in RPMI 1640 medium supplemented with 10% foetal calf serum containing a 1% antibiotic mixture under standard tissue culture conditions and were maintained at 37° C. in a humidified atmosphere of 5% CO2 in air. Cells were harvested from a stock culture in exponential growth phase and plated in 96-well flat-bottomed plates to achieve a final density of 2×10^3 cells per well. After 2 hours incubation medium was replaced with either fresh medium containing 0.5% DMSO (control) or medium containing test compound dissolved in DMSO at a concentrations from 10 mM to 1 nM. Chemosensitivity was assessed using MTT assay by the method of Plumb et al Cancer Research 49 (1989) 4435-4440.
Following 96 hours continuous exposure to drug at 37° C. cells were incubated with fresh drug-free medium immediately prior to addition of MTT solution (5 mg/ml). Medium and MTT were removed after 4 hours and 150 μl of DMSO was added. For each plate the absorbance of the resulting solution was measured at the analytical wavelength 550 nm for formazan product, using a Labsystem Mutiskan. IC50 values were obtained from growth curves of drug concentration against % survival and are expressed in μm.

Data set [3] deals with DNA: Calf thymus sodium salt. The experiment in a line: DNA binding assay, ethidium bromide displacement. Further details: key: NB = Not binding. As to conditions: concentration required to displace 50% of the ethidium bromide; 20 μM DNA, 2 μM dye. Here is the method: as §1, §2, §3, §4, §5, §6

In turn, `C[C@@H](N)C(=O)OCCCNc1cccc2c1C(=O)c1ccccc1C2=O.O=C(O)C(F)(F)F` [Example 63, 1-[3-(D-alanyloxy)propylamino]anthracene-9,10-dione trifluoroacetate] had a melting point of 134 °C. The “QH50 Minor groove binding” value in data set [1] is “NB”. Inhibition in data set [2] was half-maximal at 6.9 µM (IC50). Also, in data set [3], the “QE50 Intercalating” value is “NB”.
`O=C(O)C(F)(F)F.O=C1c2ccccc2C(=O)c2c(NCCCOC(=O)[C@@H]3CCCN3)cccc21` [Example 67, 1-[3-(L-prolyloxy)propylamino]anthracene-9,10-dione trifluoroacetate] had a melting point of 66 °C. Further, the “QH50 Minor groove binding” value in data set [1] is “NB”. Moreover, half-maximal inhibition in data set [2] (IC50) was put at 8.3 µM. The “QE50 Intercalating” value in data set [3] is on record as “NB”.
On to `CNCC(=O)OCCCCNc1cccc2c1C(=O)c1ccccc1C2=O.O=C(O)C(F)(F)F` [Example 83, 1-[4-(sarcosyloxy)butylamino]anthracene-9,10-dione trifluoroacetate], for which the melting point worked out at 132 °C. In addition, the IC50 in data set [2] is 7.2 µM.
`O=C(O)C(F)(F)F.O=C1c2ccccc2C(=O)c2c(NCCOC(=O)[C@@H]3CCCN3)cccc21` [Example 137, 1-[2-(prolyloxy)ethylamino]anthracene-9,10-dione trifluoroacetate]: the “QH50 Minor groove binding” value in data set [1] is listed as “NB”. The IC50 in data set [2] was 33.5 µM. Moreover, the “QE50 Intercalating” value in data set [3] is recorded as “NB”.
`C[C@H](N)C(=O)OCCCNc1cccc2c1C(=O)c1ccccc1C2=O.O=C(O)C(F)(F)F` [Example 29, 1-[3-(L-alanyloxy)propylamino]anthracene-9,10-dione trifluoroacetate] displayed a melting point of 126 °C. The “QH50 Minor groove binding” value in data set [1] is listed as “NB”. This molecule displayed an IC50 in data set [2] of 9.7 µM. For the same molecule, in data set [3], the “QE50 Intercalating” value is “NB”.
For `O=C1c2c(O)ccc(O)c2C(=O)c2c(NCCNCCO)ccc(NCCNCCO)c21` [Mitoxantrone, reference compound], the “QH50 Minor groove binding” value in data set [1] came to 1.2 ± 0.3 µM. Also, the “QE50 Intercalating” value in data set [3] stood at 0.8 ± 0.3 µM.
Regarding `N[C@@H](Cc1ccccc1)C(=O)OCCNc1cccc2c1C(=O)c1ccccc1C2=O.O=C(O)C(F)(F)F` [Example 33, 1-[2-(L-phenylalanyloxy)ethylamino]anthracene-9,10-dione trifluoro-acetate], the “QH50 Minor groove binding” value in data set [1] is “NB”. Further, the “QE50 Intercalating” value in data set [3] is reported as “NB”.
`CN[C@@H](C)C(=O)OCCCCNc1cccc2c1C(=O)c1ccccc1C2=O.O=C(O)C(F)(F)F` [Example 91, 1-[4-(N-methyl-L-alanyloxy)butylamino]anthracene-9,10-dione tri-fluoroacetate]: the melting point was found to be 84 °C. In data set [2] (96 h), this molecule showed an IC50 of 4.8 µM.
The molecule `CC(C)C[C@H](N)C(=O)NCC(=O)OCCCNc1cccc2c1C(=O)c1ccccc1C2=O.O=C(O)C(F)(F)F` [Example 133, 1-[3-(L-leucylglycyloxy)propylamino]anthracene-9,10-dione trifluoroacetate] came in with a melting point of 100 °C. The IC50 in data set [2] worked out at 1.2 µM.
On the same counts, the results for `N[C@H](Cc1ccccc1)C(=O)OCCCNc1cccc2c1C(=O)c1ccccc1C2=O.O=C(O)C(F)(F)F` [Example 65, 1-[3-(D-phenylalanyloxy)propylamino]anthracene-9,10-dione trifluoro-acetate] are 102 °C and 4.8 µM.
Take `NCC(=O)OCCCNc1cccc2c1C(=O)c1ccccc1C2=O.O=C(O)C(F)(F)F` [Example 61, 1-[3-(glycyloxy)propylamino]anthracene-9,10-dione trifluoroacetate]: the melting point amounted to 198 °C. Besides, the IC50 in data set [2] was 10.6 µM.
`O=C(O)C(F)(F)F.O=C1c2ccccc2C(=O)c2c(NCCCOC(=O)[C@H]3CCCN3)cccc21` [Example 69, 1-[3-(D-prolyloxy)propylamino]anthracene-9,10-dione trifluoroacetate] came in with a melting point of 66 °C. Also, in data set [1], the “QH50 Minor groove binding” value was “NB”. The molecule further showed an IC50 in data set [2] of 10.2 µM. In addition, the “QE50 Intercalating” value in data set [3] was “NB”.
On to `CC(C)[C@H](N)C(=O)OCCCCNc1ccc(O)c2c1C(=O)c1ccccc1C2=O.O=C(O)C(F)(F)F` [Example 53, 4-hydroxy-1-[4-(L-valyloxy)butylamino]anthracene-9,10-dione tri-fluoroacetate], for which the “QH50 Minor groove binding” value in data set [1] came to 4.4 µM. Also, the IC50 in data set [2] (96 h) was determined as 5.3 µM. Further, in data set [3], the “QE50 Intercalating” value was found to be 2.9 µM.
With `NCC(=O)OCCCNc1ccc(O)c2c1C(=O)c1ccccc1C2=O.O=C(O)C(F)(F)F` [Example 123, 4-hydroxy-1-[3-(glycyloxy)propylamino]anthracene-9,10-dione tri-fluoroacetate], the melting point was found to be 188 °C. In data set [2] (96 h), this molecule registered an IC50 of 0.3 µM.
With `CC[C@H](N)C(=O)OCCCCNc1cccc2c1C(=O)c1ccccc1C2=O.O=C(O)C(F)(F)F` [Example 87, (S)-1-[4-(2-aminobutanoyloxy)butylamino]-anthracene-9,10-dione trifluoroacetate], the melting point was found to be 118 °C. Besides, in data set [2], the IC50 stood at 3 µM.
On the same counts, the results for `NCC(=O)OCCCNc1ccc(O)c2c1C(=O)c1c(O)cccc1C2=O.O=C(O)C(F)(F)F` [Example 127, 4,8-dihydroxy-1-[3-(glycyloxy)propylamino]anthracene-9,10-dione trifluoroacetate] are 196 °C and 1.3 µM.
`NCC(=O)N1CCC[C@H]1C(=O)OCCCNc1cccc2c1C(=O)c1ccccc1C2=O.O=C(O)C(F)(F)F` [Example 131, 1-[3-(glycyl-L-prolyloxy)propylamino]anthracene-9,10-dione tri-fluoroacetate] showed a melting point of 146 °C. This molecule yielded an IC50 in data set [2] (96 h) of 2.5 µM.
For the molecule `NCC(=O)OCCNc1cccc2c1C(=O)c1ccccc1C2=O.O=C(O)C(F)(F)F` [Example 59, 1-[2-(glycyloxy)ethylamino]anthracene-9,10-dione trifluoroacetate], the melting point came to 180 °C. Besides, the IC50 in data set [2] turned out to be 3.5 µM.
Molecule `CC(C)(C)OC(=O)NCC(=O)OCCCCNc1cccc2c1C(=O)c1ccccc1C2=O` [Example 80, 1-[4-(N-tertiarybutoxycarbonylglycyloxy)butylamino]anthracene-9,10-dione] yielded a melting point of 70 °C.
Still for that read-out and setting: in the case of `CC(C)(C)OC(=O)NCC(=O)OCCNc1cccc2c1C(=O)c1ccccc1C2=O` [Example 58, 1-[2-(N-tertiarybutoxycarbonylglycyloxy)ethylamino]anthracene-9,10-dione] it was 122 °C.
The same measure, in the same setting: in the case of `NCC(=O)OCCCCNc1cccc2c1C(=O)c1ccccc1C2=O` (as salt: trifluoroacetate) [Example 81, 1-[4-(glycyloxy)butylamino]anthracene-9,10-dione trifluoroacetate] it was 154 °C.
